Our source for the IC50 values is patent US20250090524A1, “BTK INHIBITORS” (BIOGEN MA INC., priority 2021, published 2025).

A value given as a limit tells only on which side of the number the result lay.

The test system of test [1] is CD69 expression on CD19+ B cells in human whole blood. Description: In Vitro Whole Blood CD69 Assay. Format: cell-based. The note with it: B-cell; human heparinized whole blood, anti-human IgD stimulation, overnight (18 to 22 hours), percentage of CD19+ B cells expressing CD69, flow cytometry; read-out: In Vitro HWB CD69 Assay IC50 Score. The method, then:
Human heparinized venous blood from health donors was aliquoted into 96-well plate and “spiked” with serial dilutions of formula I compounds in DMSO or with DMSO without drug. The final concentration of DMSO in all wells was 0.1%. The plate was incubated at 37° C. for 30 min. Drug-containing samples were stimulated with […] mouse anti-human IgD-dextran (1A62) or 20 μg/mL polyclonal rabbit F(ab′)2 anti-human IgD.
Phosphate-buffered saline (PBS) was added to the negative control unstimulated sample and the plates were incubated overnight (18 to 22 hours) at 37° C. Cells were stained with fluorochrome-conjugated anti-CD19 and anti-CD69 antibodies. Lyse/fix solution was used to remove red blood cells by hypotonic lysis and to fix the remaining cells, which were then analyzed by flow cytometry. CD19+B cells were gated and analyzed for CD69 expression.
The percentage of B cells expressing CD69 was plotted versus the log 10 of the concentration of the drug and the best-fit curves (variable Hill slope) were generated to obtain the IC50 value.
“†” represents an IC50 of greater than 10 μM. “††” represents an IC50 of greater than 1 μM and equal to or less than 10 μM (1 μM<IC50≤10 μM). “†††” represents an IC50 of less than 1 μM.
(In general: Flow cytometry measures light scatter and fluorescence of single cells or particles in a stream.)

Test [2] concerns the target T1, BTK (Homo sapiens, UniProt Q06187).
T1 construct: purchased Upstate 14-552
Description: In Vitro BTK Kinase Assay: Btk-PolyGAT-LS Assay. Format: biochemical. The note with it: active BTK enzyme 0.25 nM, fluorescein-labeled polyGAT peptide 100 nM, 30 minutes incubation, TRF readout; read-out: In Vitro BTK Kinase Assay IC50 Score. The method, then: The purpose of the BTK in vitro assay is to determine compound potency against BTK through the measurement of IC50. Compound inhibition is measured after monitoring the amount of phosphorylation of a fluorescein-labeled polyGAT peptide (Invitrogen PV3611) in the presence of active BTK enzyme (Upstate 14-552), ATP, and inhibitor. The BTK kinase reaction was done in a black 96 well plate (costar 3694). For a typical assay, a 24 μL aliquot of a ATP/peptide master mix (final concentration; ATP […], polyGAT 100 nM) in kinase buffer (10 mM Tris-HCl pH 7.5, 10 mM MgCl2, 200 μM […], 5 mM DTT, 0.01% Triton X-100, and 0.2 mg/ml casein) is added to each well. Next, I uL of a 4-fold, 40× compound titration in 100% DMSO solvent is added, followed by adding […] of BTK enzyme mix in 1× kinase buffer (with a final concentration of 0.25 nM). The assay is incubated for 30 minutes before being stopped with […] of a 50 mM EDTA solution. Aliquots (5 uL) of the kinase reaction are transferred to a low volume white 384 well plate (Corning 3674), and […] of a 2× detection buffer (Invitrogen PV3574, with 4 nM Tb-PY20 antibody, Invitrogen PV3552) is added. The plate is covered and incubated for 45 minutes at room temperature. Time resolved fluorescence (TRF) on Molecular Devices M5 (332 nm excitation; 488 nm emission; 518 nm fluorescein emission) is measured. IC50 values are calculated using a four parameter fit with 100% enzyme activity determined from the DMSO control and 0% activity from the EDTA control.
“†” represents an IC50 of greater than 1 μM and equal to or less than 10 μM. “††” represents an IC50 of greater than 10 nM and equal to or less than 1 μM (10 nM<IC50≤1 μM). “†††” represents an IC50 of greater than 1 nM and equal to or less than 10 nM (1 nM<IC50≤10 nM). “††††” represents an IC50 of less than 1 nM.

T1 sequence (Q06187 whole entry): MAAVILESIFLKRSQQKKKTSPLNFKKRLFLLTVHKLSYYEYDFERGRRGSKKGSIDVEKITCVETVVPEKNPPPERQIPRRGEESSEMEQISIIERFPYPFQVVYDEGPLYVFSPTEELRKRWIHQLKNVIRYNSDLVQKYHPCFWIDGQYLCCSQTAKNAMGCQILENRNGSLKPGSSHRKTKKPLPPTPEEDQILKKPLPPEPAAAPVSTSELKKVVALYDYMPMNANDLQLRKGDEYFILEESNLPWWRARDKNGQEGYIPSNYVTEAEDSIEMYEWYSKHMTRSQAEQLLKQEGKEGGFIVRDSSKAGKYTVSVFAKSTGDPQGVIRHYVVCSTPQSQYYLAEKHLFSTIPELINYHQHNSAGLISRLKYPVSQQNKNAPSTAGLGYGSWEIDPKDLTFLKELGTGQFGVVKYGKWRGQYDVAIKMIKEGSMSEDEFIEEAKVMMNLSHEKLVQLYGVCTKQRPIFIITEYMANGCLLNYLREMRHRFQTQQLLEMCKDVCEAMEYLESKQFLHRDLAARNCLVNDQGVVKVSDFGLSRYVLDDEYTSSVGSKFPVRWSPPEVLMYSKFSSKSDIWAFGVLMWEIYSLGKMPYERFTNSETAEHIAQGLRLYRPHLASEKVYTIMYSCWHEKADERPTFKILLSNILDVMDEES

On to `C=CC(=O)N(C)[C@@H]1CC[C@H](C(=O)c2nc(-c3cnn(C)c3)cn3nccc23)C1` (stereo in doubt) [Example 19, N-methyl-N-(3-(6-(1-methyl-1H-pyrazol-4-yl)pyrazolo[1,5-a]pyrazine-4-carbonyl)cyclopentyl)acrylamide], for which the IC50 (usually the concentration that inhibits the measured activity by half) is under 1 µM in test [1] and 1 to 10 µM in test [2].

With `C=CC(=O)N1C[C@H]2C[C@@H](c3nc(-c4cnn(C)c4)cn4nccc34)C[C@H]2C1` (single isomer, unassigned) [Example 1], the IC50 in test [1] is under 1 µM; in test [2], under 0.001 µM.

In the case of `C=CC(=O)N(C)[C@@H]1CCC[C@H](c2nc(-c3cnn(C)c3)cn3nccc23)C1` (single isomer, unassigned) [Example 27, cis-N-methyl-N-(3-(6-(1-methyl-1H-pyrazol-4-yl)pyrazolo[1,5-a]pyrazin-4-yl)cyclohexyl)acrylamide], the values for the IC50 in test [1] and in test [2] were 1 to 10 µM and 0.01 to 1 µM, respectively.

In the case of `C=CC(=O)N1CCC[C@@H](Sc2nc(-c3cnn(C)c3)cn3nccc23)CC1` (single isomer, unassigned) [Example 30], the IC50 in test [2] lay in the range of 0.01 to 1 µM.

As for `C=CC(=O)N1CCC(c2nc(-c3cnn(C)c3)cn3nccc23)C(C)C1` (stereo not shown) [Example 15, 1-[3-methyl-4-[6-(1-methylpyrazol-4-yl)pyrazolo[1,5-a]pyrazin-4-yl]-1-piperidyl]prop-2-en-1-one], the IC50 fell in the range of 1 to 10 µM in test [1] and 0.01 to 1 µM in test [2].

In the case of `C=CC(=O)N1CC=C(c2nc(-c3cnn(C)c3)cn3ncc(C)c23)CC1` [Example 10, 1-[4-[3-methyl-6-(1-methylpyrazol-4-yl)pyrazolo[1,5-a]pyrazin-4-yl]-3,6-dihydro-2H-pyridin-1-yl]prop-2-en-1-one], the IC50 in test [2] lay within 0.01 to 1 µM.

In the case of `C=CC(=O)N1C2CCC1CC(c1nc(-c3cnn(C)c3)cn3nccc13)C2` (stereo not shown) [Example 11, 1-[3-[6-(1-methylpyrazol-4-yl)pyrazolo[1,5-a]pyrazin-4-yl]-8-azabicyclo [3.2.1]octan-8-yl]prop-2-en-1-one], the IC50 in test [1] is 1 to 10 µM; in test [2], 0.001 to 0.01 µM.

For the compound `C=CC(=O)N(C)c1cccc(-c2nc(-c3cnn(C)c3)cn3nccc23)c1` [Example 29, N-methyl-N-(3-(6-(1-methyl-1H-pyrazol-4-yl)pyrazolo[1,5-a]pyrazin-4-yl)phenyl)acrylamide], the IC50 in test [1] fell in the range of 1 to 10 µM; in test [2], 0.001 to 0.01 µM.

As to `C=CC(=O)N1CCCC(c2nc(-c3cnn(C)c3)cn3nccc23)CC1` (stereo not shown) [Example 6, 1-[4-[6-(1-methylpyrazol-4-yl)pyrazolo[1,5-a]pyrazin-4-yl]azepan-1-yl]prop-2-en-1-one], the IC50 is 1 to 10 µM in test [1] and 0.01 to 1 µM in test [2].

As for `C=CC(=O)N1CCC(c2nc(-c3cnn(C)c3)cn3ncc(C)c23)CC1` [Example 9, 1-[4-[3-methyl-6-(1-methylpyrazol-4-yl)pyrazolo[1,5-a]pyrazin-4-yl]-1-piperidyl]prop-2-en-1-one], the figures for the IC50 in test [1] and in test [2] were 1 to 10 µM and 0.001 to 0.01 µM, respectively.

`C=CC(=O)N(C)C[C@@H]1CC[C@H](c2nc(-c3cnn(C)c3)cn3nccc23)C1` (stereo in doubt) [Example 22, N-methyl-N-((3-(6-(1-methyl-1H-pyrazol-4-yl)pyrazolo[1,5-a]pyrazin-4-yl)cyclopentyl)methyl)acrylamide]: the IC50 in test [2] is 0.01 to 1 µM.

With `C=CC(=O)N(C)C[C@@H]1CC[C@@H](c2nc(-c3cnn(C)c3)cn3nccc23)C1` (stereo in doubt) [Example 23, N-methyl-N-((3-(6-(1-methyl-1H-pyrazol-4-yl)pyrazolo[1,5-a]pyrazin-4-yl)cyclopentyl)methyl)acrylamide], the IC50 in test [2] is 0.01 to 1 µM.

In the case of `C=CC(=O)N(C)[C@H]1CC[C@@H](C(=O)c2nc(-c3cnn(C)c3)cn3nccc23)C1` (stereo in doubt) [Example 17, N-methyl-N-(3-(6-(1-methyl-1H-pyrazol-4-yl)pyrazolo[1,5-a]pyrazine-4-carbonyl)cyclopentyl)acrylamide], the IC50 in test [2] is 0.01 to 1 µM.

In the case of `C=CC(=O)N1C2CCCC1CC(c1nc(-c3cnn(C)c3)cn3nccc13)C2` (stereo not shown) [Example 13, 1-[3-[6-(1-methylpyrazol-4-yl)pyrazolo[1,5-a]pyrazin-4-yl]-9-azabicyclo[3.3.1]nonan-9-yl]prop-2-en-1-one], the IC50 in test [1] lay in the range of 1 to 10 µM; in test [2] it was 0.001 to 0.01 µM.

Turning to `C=CC(=O)N1CCC(c2nc(-c3cnn(C)c3)cn3nccc23)CC1` [Example 4, 1-[4-[6-(1-methylpyrazol-4-yl)pyrazolo[1,5-a]pyrazin-4-yl]-1-piperidyl]prop-2-en-1-one], the IC50 in test [1] lay within 1 to 10 µM; in test [2], 0.001 to 0.01 µM.

Take `C=CC(=O)N1CC2CCC1CC2c1nc(-c2cnn(C)c2)cn2nccc12` (stereo not shown) [Example 14, 1-[5-[6-(1-methylpyrazol-4-yl)pyrazolo[1,5-a]pyrazin-4-yl]-2-azabicyclo[2.2.2]octan-2-yl]prop-2-en-1-one]: the IC50 is 1 to 10 µM in test [1] and 0.001 to 0.01 µM in test [2].

`C=CC(=O)N1C[C@H]2C[C@H](c3nc(-c4cnn(C)c4)cn4nccc34)C[C@H]2C1` [Example 2, 1-[(3aS,6aR)-5-[6-(1-methylpyrazol-4-yl)pyrazolo[1,5-a]pyrazin-4-yl]-3,3a,4,5,6,6a-hexahydro-1H-cyclopenta[c]pyrrol-2-yl]prop-2-en-1-one]: the results for the IC50 in test [1] and in test [2] were 1 to 10 µM and 0.001 to 0.01 µM, respectively.

On to `C=CC(=O)Nc1cccc(-c2nc(-c3cnn(C)c3)cn3nccc23)c1` [Example 28, N-(3-(6-(1-methyl-1H-pyrazol-4-yl)pyrazolo[1,5-a]pyrazin-4-yl)phenyl) acrylamide], for which the IC50 in test [1] was in the range of 1 to 10 µM; in test [2], 0.01 to 1 µM.

With `C=CC(=O)N1CCCC(c2nc(-c3cnn(C)c3)cn3nccc23)C1` (stereo not shown) [Example 5, 1-[3-[6-(1-methylpyrazol-4-yl)pyrazolo[1,5-a]pyrazin-4-yl]-1-piperidyl]prop-2-en-1-one], the IC50 in test [2] was 0.01 to 1 µM.

Regarding `C=CC(=O)N1CCC(c2cc(-c3cnn(C)c3)cn3nccc23)CC1` [Example 8, 1-[4-[6-(1-methylpyrazol-4-yl)pyrazolo[1,5-a]pyridin-4-yl]-1-piperidyl]prop-2-en-1-one], the IC50 in test [1] was in the range of 1 to 10 µM; in test [2], 0.001 to 0.01 µM.

In the case of `C=CC(=O)N(C)[C@H]1CC[C@H](C(=O)c2nc(-c3cnn(C)c3)cn3nccc23)C1` (relative stereo) [Example 18, N-methyl-N-(3-(6-(1-methyl-1H-pyrazol-4-yl)pyrazolo[1,5-a]pyrazine-4-carbonyl)cyclopentyl)acrylamide], the IC50 in test [1] and in test [2] was 1 to 10 µM each time.

For the compound `C=CC(=O)N1CCC[C@H](Sc2nc(-c3cnn(C)c3)cn3nccc23)CC1` (single isomer, unassigned) [Example 31], the IC50 in test [2] is 1 to 10 µM.

Regarding `C=CC(=O)N(C)C[C@H]1CC[C@H](c2nc(-c3cnn(C)c3)cn3nccc23)C1` (stereo in doubt) [Example 20, N-methyl-N-((3-(6-(1-methyl-1H-pyrazol-4-yl)pyrazolo[1,5-a]pyrazin-4-yl)cyclopentyl)methyl)acrylamide], in test [2], the IC50 was 0.01 to 1 µM.

As for `C=CC(=O)N(C)C[C@H]1CC[C@@H](c2nc(-c3cnn(C)c3)cn3nccc23)C1` (stereo in doubt) [Example 21, N-methyl-N-((3-(6-(1-methyl-1H-pyrazol-4-yl)pyrazolo[1,5-a]pyrazin-4-yl)cyclopentyl)methyl)acrylamide], the IC50 in test [2] was in the range of 0.001 to 0.01 µM.

Regarding `C=CC(=O)N1CCC(c2nc(-c3cnn(C)c3)cn3nccc23)CC1C` (stereo not shown) [Example 12, 1-[2-methyl-4-[6-(1-methylpyrazol-4-yl)pyrazolo[1,5-a]pyrazin-4-yl]-1-piperidyl]prop-2-en-1-one], the IC50 in test [2] was 0.01 to 1 µM.
